Assay results: patent publication EP0272929B1, “Enkephalinase for therapeutic use” (GENENTECH, INC., priority 1986, dated 1988)
Where two headings read alike, the source gives them in different places.

Assays:
[1] = system: ferret tracheal smooth muscle; test: Isometric tension of isolated tracheal smooth muscle rings (contraction by peptides, effect of inhibitors); format: cell-based
Procedure: (§1) Twenty-seven ferrets were anesthetized with pentobarbital sodium (45-60 mg/kg, i.p.), and the trachea were removed. Transverse rings (8 mm long) were cut from the trachea and mounted in glass chambers filled with 14 ml of Krebs-Henseleit solution of the following composition (in mMoles/L): NaCl 118, KCl 5.9, CaCl₂ 2.5, MgSO₄ 1.2, NaH₂PO4 1.2, NaHCO₃ 25.5, glucose 5.6, 0.1% bovine serum albumin, and penicillin-streptomycin (100 Units/ml). The soluiton was maintained at 37°C and was aerated continuously in a mixture of 95% O₂-5% CO₂, which produced a pH of 7.4. Six tracheal rings were studied concurrently.
(§2) The tracheal rings were connected to strain gauges (Grass FT03) for continuous recording of isometric tension, and the rings were placed between two rectangular platinum electrodes (6 x 40 mm) for electrical field stimulation. The rings were initially stretched to a tension of 20 g for 30 seconds and were then allowed to equilibrate for 1 hour while resting tension was adjusted to 4 g (Skoogh, B-E. et al., J. Appl. Physiol. 53: 253-257 [1982]). During equilibration, the medium was changed every 15 minutes. […] Id.
The responsiveness to substance P (using concentrations ranging from 10⁻⁸ M to 10⁻⁵ M) and to leu-thiorphan and cumulative dose-response curves to substance P (Peninsula Labs) were obtained. Each succeeding concentration of substance P was added after contraction reached a plateau. After completion of the first dose-response curve to substance P, leu-thiorphan (10⁻⁵ M, Squibb Pharmaceutical) was added to the organ bath. Following a 15 minute incubation, a second dose-response curve to substance P was obtained.
The N-terminal fragment, substance P₁₋₉ was studied because enkephalinase cleaves substance P between the 9 and 10 positions (Matsas, R. et al., Proc. Natl. Acad. Sci. [USA] 80: 3111-3115 [1983]), generating that fragment. (10⁻⁵ M Peninsula Labs). Experiments were also carried out with (DPro², DTrp^7,9)-substance P (10⁻⁵ M) (Peninsula Labs), a substance P antagonist (Hakanson, R. et al., Br. J. Pharmac. 77: 697-700 [1982]) by adding the antagonist after the response to substance P (10⁻⁶ M) and leu-thiorphan (10⁻⁵ M) reached a plateau.
Data were expressed as mean ± SE. For the dose-response curves to substance P, the means between two groups at each concentration were compared by a paired t test. For the studies of electrical field stimulation, responses were compared by one way analysis of variance and Newman-Keuls multiple range test. Significance was accepted at P < 0.05. […]

ferret trachea [2] = test: Mucus secretion from ferret tracheal segments in Ussing-type chambers (release of 35SO4-labeled macromolecules, flux of bound SO4); format: cell-based; details: for potentiation of substance P-induced secretion: 10 µg/ml each, bestatin 10⁻⁵M (Fig. 4)
Procedure: (§3) Mucus secretion from tracheal segments of 36 ferrets was measured using methods described earlier (Borson, D.B. et al., J. Appl. Physiol. 57: 457-466 [1984]). Briefly, after anesthetizing adult male ferrets weighing 1-2 kg with sodium pentobarbital (45-60 mg/kg, ip), the trachea was removed and washed in medium 199/Earles HCO₃ bubbled with 95% O₂ - 5% CO₂ at 38°C. Tracheal segments were mounted in plastic Ussing-type chambers connected to perfusion chambers made of siliconized glass (MRA Inc., Clearwater, Florida). After exposing both sides to medium 199, 0.167 mCi Na₂.³⁵SO₄ was added to the submucosal side. At 15 minute intervals, the medium was drained from the luminal side and replaced with fresh unlabeled medium. Each sample was placed in dialysis tubing (Spectropore no. D1615-1; MW cutoff: 12-14,000) and exhaustively dialyzed with the rest of the samples from the experiment against at least 6 changes of distilled water (4 liters each) containing excess unlabeled SO₄ and sodium azide (10 mg/L) to prevent bacterial degradation of the macromolecules. After dialysis, the bound radioactivity of each sample was determined using a Beckman Instruments beta counter (model LS 7500). Molecular weight profiles of the materials secreted were determined by first desalting samples using a Sephadex G-50 column, then concentrating carbohydrate-containing molecules on DEAE Sephacel, and determining apparent molecular size under denaturing conditions (4 M guanidine, 10mM 2-mercaptoethanol, 0.1% Triton X-100) using a Sepharose CL-6B column.
(§4) Characteristics of the response to substance P including the time course, concentration dependence, and reproducibility were studied. Tracheal segments from 8 ferrets were incubated in the presence of radiolabel for 3 hours to which were added different concentrations of substance P (10⁻⁹M to 10⁻⁵M; Peninisula Labs, Belmont, CA). […] All treatments were randomized with regard to the site of sampling in the trachea to eliminate systematic bias.
(§5) The effects of endogenous proteinases were studied by incubating at least two tissues from each of 4 ferrets for 30 minutes in medium for 2.5 hours and adding a combination of nine (9) proteinase inhibitors to the submucosal side of each tissue (10 µg/mL each). The inhibitors used included leupeptin, antipain, pepstatin A, thiorphan, substance P₁₋₉ (Growcott, J.W. and Tarpey, A.V. Eur. J. Pharm. 84: 107-109 [1982]) and the angiotensin converting enzyme inhibitor, teprotide (Peninsula labs), aprotonin, BSA, and bacitracin (Sigma). Thirty minutes after addition of inhibitor, substance P (10⁻⁶M) was added to the submucosal side. […] The mean responses to substance P in the presence of inhibitors was compared with the mean responses of two control segments from each of the same animals.
(§6) The concentration-dependence of enkephalinase inhibition was explored by adding thiorphan in different concentrations to different tissues. To determine whether the secretory effect of substance P might be mediated indirectly via the release of endogenous enkephalins, we tested the effects of met-enkephalin (Peninsula Labs) on secretory responses.
(§7) We calculated the flux of bound SO₄ (^JSO₄) from the cpm in the dialyzed samples according to the equation modified from (Corrales, R.J. et al., J. Appl. Physiol. 56: 1076-1082 [1985]): ()^J SO4 (pmol SO4 (/cm)^2 /h) =(((cpm recovered/15 min x 4) x (811 x 10)^6 pmol cold SO4 /5mL))/((0.5 cm)^2 x cpm in 5.0 mL of hot-side medium) [formula]

[3] = system: ferret tracheal smooth muscle; test: Electrical field stimulation-induced contraction of isolated tracheal smooth muscle; format: cell-based; details: inhibitor 10⁻⁵ M, 15 min; tachykinins 10⁻⁷ M
Procedure: as §2
Increasing concentrations of leu-thiorphan (10⁻¹¹ to 10⁻⁴ M) were added and the stimuli repeated to determine whether leu-thiorphan modulated electrical field stimulation-induced contractions. […] After determining control responses to electrical field stimulation (5 Hz), leu-thiorphan (10⁻⁵ M; 15 min) was added, the stimulus repeated, (DPro²,DTrp^7,9)substance P, the substance P antagonist (10⁻⁵ M; 15 min; Peninisula Labs) was added, and the stimulus was repeated.
(§8) Data were expressed as mean ± SE. For the dose-response curves to tachykinins the means between two groups at each concentration were analyzed by an unpaired t test. For the study of electrical field stimulation, responses were compared by one way analysis of variance and Newman-Keuls multiple range test. Significance was accepted at p<0.05.

neutrophils = test: Neutrophil chemotaxis assay (Chemotaxis kit, 5 µm filter); format: cell-based; details: Homo sapiens, Formyl Met-Leu-Phe 1µM + inhibitor 10µM, 1 hr at 37°C, read-out: Neutrophil Migration (% control)
Procedure: As assay was used to test the effects of enkephalinase on neutrophil chemotaxis. A commercially available chemotactic assay (Chemotaxis kit, Neuroprobe, Cabin John, Md) was used and modified as described below. Neutrophils were isolated by sedimentation over dextran from peripheral blood of human donors. A sample of neutrophils is placed over a 5 µm filter in a chemotaxis chamber containing aliquots of test material. Three to six replicates were run for each test for 1 hr. at 37°C. The number of migrating neutrophils in each chamber is then counted. The chemotactic potential is evaluated by the number of cells in five selected unit areas.
Various specific inhibitors of enkephalinase were used to determine the role of enkephalinase in chemotaxis of neutrophils. Chemotactic activity is reported as the total number of neutrophils observed in five fields of the kit membrane under 100X magnification. Thus, the larger the number the more chemotactic was a particular test composition.

ferret trachea [4] = details: for potentiation of substance P-induced secretion: substance P 10⁻⁶M; for order of potency for stimulation of secretion: each tachykinin 10⁻⁵M
Procedure: as §3, §4, §5, §6, §7

[5] = system: ferret tracheal smooth muscle; test: Isometric tension of isolated tracheal smooth muscle rings (contraction by peptides, effect of inhibitors); format: cell-based; remark: listed apart in the source
Procedure: as §1
as §2, with “Id. […]” for “Id.”
The methods used to excise tracheal tissue, mount and electrically stimulate the tissue were identical to those described above. The responses to tachykinins and to leu-thiorphan, cumulative dose-response curves to substance P (Peninsula Labs), neurokinin A (Peninisula Labs) and neurokinin B (Peninsula Labs) were obtained using concentrations ranging from 10⁻¹¹ M to 10⁻⁵ M in the presence and absence of leu-thiorphan (10⁻⁵ M, 15 min; Squibb Pharmaceutical). Each succeeding concentration of tachykinin was added after the previous contraction had reached a plateau.
as §8
The methods used were the same as those described in Example 7.

[6] = inhibitor 10⁻⁴M, substance P 10⁻⁶M
[7] = presence of phosphoramidon 10⁻⁵M

For `CN1[C@@H]2CC[C@H]1C[C@@H](OC(=O)C(CO)c1ccccc1)C2` (some centres unmarked) [atropine], the “effect on SP plus leu-thiorphan-induced contractions” value [1] was “decreased SP plus leu-thiorphan-induced contractions significantly”.
In the case of `CC(C)C[C@H](NC(=O)[C@@H](O)[C@H](N)Cc1ccccc1)C(=O)O` [bestatin], the “potentiation of substance P-induced secretion” value (ferret trachea [2]; substance P 10⁻⁶M) is reported as “failed to potentiate substance P-induced secretion” and the “potentiation of the response to electrical field stimulation in the presence of substance P, neurokinin A or neurokinin B” value [3] is reported as “did not”.
With `C[C@H](CS)C(=O)N1CCC[C@H]1C(=O)O` [captopril] the activation at 100 µM (ferret trachea [2]; Mustela putorius, inhibitor 10⁻⁴M (Fig. 4), substance P 10⁻⁶M, not significantly different from control, read-out: potentiation of substance P-induced secretion) was 44 ± 27% and the “potentiation of the response to electrical field stimulation in the presence of substance P, neurokinin A or neurokinin B” value [3] was “did not”.
For `CC(=O)N[C@@H](CC(C)C)C(=O)N[C@@H](CC(C)C)C(=O)N[C@H](C=O)CCCNC(=N)N` [leupeptin], the “potentiation of substance P-induced secretion” value (ferret trachea [2]; substance P 10⁻⁶M) was “failed to potentiate substance P-induced secretion” and the “potentiation of the response to electrical field stimulation in the presence of substance P, neurokinin A or neurokinin B” value [3] was “did not”.
With `CC(C)C[C@H](NP(=O)(O)O[C@@H]1O[C@@H](C)[C@H](O)[C@@H](O)[C@H]1O)C(=O)N[C@@H](Cc1c[nH]c2ccccc12)C(=O)O` [phosphoramidon] the “effect on secretory responses to each tachykinin” value (ferret trachea [2]; 10⁻⁵M, 30 min pretreatment, tachykinins 10⁻⁵M) was “significantly increased”, the “substance P-induced increase in flux in inhibitor-treated tissues” value (ferret trachea [2]; inhibitor 10⁻⁵M, substance P 10⁻⁶M) was 357 ± 91.9 pmol bound SO₄/cm²/h and the activity at 10 µM (neutrophils) was 65%.
For `CSCC[C@H](NC(=O)[C@H](CC(C)C)NC(=O)CNC(=O)[C@H](Cc1ccccc1)NC(=O)[C@H](Cc1ccccc1)NC(=O)[C@H](CCC(N)=O)NC(=O)[C@H](CCC(N)=O)NC(=O)[C@@H]1CCCN1C(=O)[C@H](CCCCN)NC(=O)[C@@H]1CCCN1C(=O)[C@@H](N)CCCNC(=N)N)C(N)=O` [substance P], the “flux of bound SO₄ above the pre-stimulus baseline” value (ferret trachea [4]; 10 µM) was 155 ± 42%.
In the case of `O=C(O)CNC(=O)C(CS)Cc1ccccc1` (centres unmarked) [thiorphan], the “increase in flux of bound SO₄ by the inhibitor by itself” value (ferret trachea [2]; 10⁻⁴M, submucosal side) is reported as 57 ± 17.8 pmol bound SO₄/cm²/h, the minimal effective concentration (ferret trachea [2]; Mustela putorius, substance P 10⁻⁶M, read-out: threshold of potentiation of the secretory response to substance P) is reported as roughly 0.01 µM and the “response to substance P, % of control” value (ferret trachea [2]; [6]) is reported as 502 ± 147%. For the same compound, the “substance P-induced increase in flux of bound SO₄ in inhibitor-pretreated tissue” value (ferret trachea [2]; [6]) was 268.0 ± 58.0 pmol/cm²/h, the “sum of the individual effects as % of the response to substance P in the presence of the inhibitor” value (ferret trachea [2]; test of additivity) was 51% and the “sum of the individual effects of substance P and inhibitor” value (ferret trachea [2]; test of additivity) was 136.2 pmol bound SO₄/cm²/h. The activity at 10 µM (neutrophils) was 29 ± 19%.
For bacitracin, the “potentiation of substance P-induced secretion” value (ferret trachea [4]; 10 µg/ml each, bestatin 10⁻⁵M (Fig. 4)) was “failed to potentiate substance P-induced secretion”.
With “bradykinin (RPPGFSPFR; Bradykinin; UniProt P01042 381-389, looked up)” the “contraction” value ([5]; 10⁻¹¹ to 10⁻⁵ M) was “caused contraction in a dose-dependent fashion”, the relative contractile potency ([5]; absence of enkephalinase inhibitors) was “more potent that lys-bradykinin” and the relative contractile potency ([5]; presence of Leu-thiorphan) was “equally potent”.
eledoisin was tested, and the “order of potency for stimulation of secretion” value (from here on “order of potency”) (ferret trachea [4]; absence of phosphoramidon) was “substance P> physalaemin=eledoisin=kassinin > neurokinin A” and the “order of potency” value (ferret trachea [4]; [7]) was “Substance P=neurokinin A=physalaemin=eledoisin=kassinin>neurokinin B”.
kassinin was tested, and the “order of potency” value (ferret trachea [4]; absence of phosphoramidon) was “substance P> physalaemin=eledoisin=kassinin > neurokinin A” and the “order of potency” value (ferret trachea [4]; [7]) was “Substance P=neurokinin A=physalaemin=eledoisin=kassinin>neurokinin B”.
With physalaemin the “order of potency” value (ferret trachea [4]; absence of phosphoramidon) was “substance P> physalaemin=eledoisin=kassinin > neurokinin A” and the “order of potency” value (ferret trachea [4]; [7]) was “Substance P=neurokinin A=physalaemin=eledoisin=kassinin>neurokinin B”.
With teprotide the “potentiation of substance P-induced secretion” value (ferret trachea [4]; inhibitor 10⁻⁴M (Fig. 4), not significantly different from control) was 49 ± 39%.
